Experimental data: patent publication US10472346B2, “Potent gamma-secretase modulators” (The General Hospital Coporation, priority 2014, dated 2019)

Test system: Aβ42
Test: Aβ42 IC50 assay (SHSYSY-APP cell-based screening, UCSD sandwich Aβ42 ELISA)
Excerpt: FIG. 8: Representative concentration response curves of Compound 1 using our primary and orthogonal medium throughput SHSYSY-APP cell-based screening assays (10). Compounds are first screened two times in triplicate in our UCSD sandwich Aβ42 ELISA on sequential days and the average of the two assays must be within 3-fold of each other before being entered into the CDD relational database. The UCSD sandwich ELISA assay can easily handle 20 compounds per week. Compounds with Aβ42 IC50 values <100 nM continue through the testing funnel. The Z′ score and the % CV for the UCSD Aβ42 sandwich ELISA assay are 0.8 and 4, respectively. For the Meso Scale triplex assay the Z′ scores are 0.7, 0.9 and 0.6 Aβ42, Aβ40 and Aβ38, respectively and the % CV's are 7, 2 and 1 for Aβ42, Aβ40 and Aβ38, respectively. Aβ total peptides are measured using a sandwich ELISA.
Tabular Results of A1142 Assays Conducted on Compounds of Examples 5-102. Assays are Aβ42 IC50 (nM).

IC50 | SMILES
0.015 µM | COc1cc([C@H](C)Nc2nnc(-c3ccc(-n4cnc(C)c4)c(OC)n3)cc2C)ccc1F [Example 47, (S)—N-(1-(4-fluoro-3-methoxyphenyl)ethyl)-6-(6-methoxy-5-(4-methyl-1H-imidazol-1-yl)pyridin-2-yl)-4-methylpyridazin-3-amine]
0.0063 µM | COc1nc(-c2cc(C)c(N[C@@H](C)c3cccc(C)c3)nn2)ccc1-n1cnc(C)c1 [Example 48, (S)-6-(6-methoxy-5-(4-methyl-1H-imidazol-1-yl)pyridin-2-yl)-4-methyl-N-(1-(m-tolyl)ethyl)pyridazin-3-amine]
0.007 µM | COc1nc(-c2cc(C)c(N[C@@H](C)c3cccc(C(F)(F)F)c3)nn2)ccc1-n1cnc(C)c1 [Example 49, (S)-6-(6-methoxy-5-(4-methyl-1H-imidazol-1-yl)pyridin-2-yl)-4-methyl-N-(1-(3-(trifluoromethyl)phenyl)ethyl)pyridazin-3-amine]
0.0083 µM | COc1nc(-c2cc(C)c(N[C@@H](C)c3ccc(F)c(C)c3)nn2)ccc1-n1cnc(C)c1 [Example 51, (S)—N-(1-(4-fluoro-3-methylphenyl)ethyl)-6-(6-methoxy-5-(4-methyl-1H-imidazol-1-yl)pyridin-2-yl)-4-methylpyridazin-3-amine]
0.005 µM | COc1nc(-c2cc(C)c(N[C@@H](C)c3cc(F)c(F)c(F)c3)nn2)ccc1-n1cnc(C)c1 [Example 52, (S)-6-(6-methoxy-5-(4-methyl-1H-imidazol-1-yl)pyridin-2-yl)-4-methyl-N-(1-(3,4,5-trifluorophenyl)ethyl)pyridazin-3-amine]
0.0098 µM | COc1nc(-c2cc(C)c(N[C@@H](C)c3ccc(F)c(C(F)(F)F)c3)nn2)ccc1-n1cnc(C)c1 [Example 53, (S)—N-(1-(4-fluoro-3-(trifluoromethyl)phenyl)ethyl)-6-(6-methoxy-5-(4-methyl-1H-imidazol-1-yl)pyridin-2-yl)-4-methylpyridazin-3-amine]
0.0033 µM | COc1nc(-c2cc(C)c(N[C@@H](C)c3ccccc3C)nn2)ccc1-n1cnc(C)c1 [Example 55, (S)-6-(6-methoxy-5-(4-methyl-1H-imidazol-1-yl)pyridin-2-yl)-4-methyl-N-(1-(o-tolyl)ethyl)pyridazin-3-amine]
0.003 µM | COc1nc(-c2cc(C)c(N[C@@H](C)c3ccccc3C(F)(F)F)nn2)ccc1-n1cnc(C)c1 [Example 56, (S)-6-(6-methoxy-5-(4-methyl-1H-imidazol-1-yl)pyridin-2-yl)-4-methyl-N-(1-(2-(trifluoromethyl)phenyl)ethyl)pyridazin-3-amine]
0.004 µM | COc1nc(-c2cc(C)c(N[C@H](c3ccc(F)cc3)C(C)C)nn2)ccc1-n1cnc(C)c1 [Example 57, (S)—N-(1-(4-fluorophenyl)-2-methylpropyl)-6-(6-methoxy-5-(4-methyl-1H-imidazol-1-yl)pyridin-2-yl)-4-methylpyridazin-3-amine]
0.012 µM | COc1nc(-c2cc(C)c(N[C@@H](C)C3CCCCC3)nn2)ccc1-n1cnc(C)c1 [Example 58, (S)—N-(1-cyclohexylethyl)-6-(6-methoxy-5-(4-methyl-1H-imidazol-1-yl)pyridin-2-yl)-4-methylpyridazin-3-amine]
0.778 µM | COc1nc(-c2cc(C)c(N[C@@H](C)c3ccncc3)nn2)ccc1-n1cnc(C)c1 [Example 59, (S)-6-(6-methoxy-5-(4-methyl-1H-imidazol-1-yl)pyridin-2-yl)-4-methyl-N-(1-(pyridin-4-yl)ethyl)pyridazin-3-amine]
0.012 µM | COc1nc(-c2cc(C)c(NC3(c4ccc(F)cc4)CC3)nn2)ccc1-n1cnc(C)c1 [Example 60, N-(1-(4-fluorophenyl)cyclopropyl)-6-(6-methoxy-5-(4-methyl-1H-imidazol-1-yl)pyridin-2-yl)-4-methylpyridazin-3-amine]
0.027 µM | COc1nc(-c2cc(C)c(N[C@@H](C)C(C)C)nn2)ccc1-n1cnc(C)c1 [Example 61, (S)-6-(6-methoxy-5-(4-methyl-1H-imidazol-1-yl)pyridin-2-yl)-4-methyl-N-(3-methylbutan-2-yl)pyridazin-3-amine]
2.16 µM | COC[C@H](C)Nc1nnc(-c2ccc(-n3cnc(C)c3)c(OC)n2)cc1C [Example 62, (S)-6-(6-methoxy-5-(4-methyl-1H-imidazol-1-yl)pyridin-2-yl)-N-(1-methoxypropan-2-yl)-4-methylpyridazin-3-amine]
0.079 µM | CC[C@H](C)Nc1nnc(-c2ccc(-n3cnc(C)c3)c(OC)n2)cc1C [Example 63, (S)—N-(sec-butyl)-6-(6-methoxy-5-(4-methyl-1H-imidazol-1-yl)pyridin-2-yl)-4-methylpyridazin-3-amine]
> 10 µM | COc1nc(-c2cc(C)c(N[C@@H](C)CO)nn2)ccc1-n1cnc(C)c1 [Example 64, (S)-2-((6-(6-methoxy-5-(4-methyl-1H-imidazol-1-yl)pyridin-2-yl)-4-methylpyridazin-3-yl)amino) propan-1-ol]

IC50 | SMILES
0.053 µM | COc1nc(-c2cc(C)c(N[C@H](C)C(C)C)nn2)ccc1-n1cnc(C)c1 [Example 66, (R)-6-(6-methoxy-5-(4-methyl-1H-imidazol-1-yl)pyridin-2-yl)-4-methyl-N-(3-methylbutan-2-yl)pyridazin-3-amine]
0.095 µM | COc1nc(-c2cc(C)c(N[C@@H](C)c3ccccn3)nn2)ccc1-n1cnc(C)c1 [Example 67, (S)-6-(6-methoxy-5-(4-methyl-1H-imidazol-1-yl)pyridin-2-yl)-4-methyl-N-(1-(pyridin-2-yl)ethyl)pyridazin-3-amine]
0.08 µM | COc1nc(-c2cc(C)c(N[C@H](C)c3ccccc3)nn2)ccc1-n1cnc(C)c1 [Example 68, (R)-6-(6-methoxy-5-(4-methyl-1H-imidazol-1-yl)pyridin-2-yl)-4-methyl-N-(1-phenylethyl)pyridazin-3-amine]
0.0045 µM | COc1nc(-c2cc(C)c(N[C@@H](C)c3ccc(F)cc3C)nn2)ccc1-n1cnc(C)c1 [Example 69, (S)—N-(1-(4-fluoro-2-methylphenyl)ethyl)-6-(6-methoxy-5-(4-methyl-1H-imidazol-1-yl)pyridin-2-yl)-4-methylpyridazin-3-amine]
0.425 µM | COc1nc(-c2cc(C)c(NC3CC3)nn2)ccc1-n1cnc(C)c1 [Example 70, N-cyclopropyl-6-(6-methoxy-5-(4-methyl-1H-imidazol-1-yl)pyridin-2-yl)-4-methylpyridazin-3-amine]
0.022 µM | COc1nc(-c2cc(C)c(N[C@@H](CO)c3ccc(F)cc3)nn2)ccc1-n1cnc(C)c1 [Example 71, (R)-2-(4-fluorophenyl)-2-((6-(6-methoxy-5-(4-methyl-1H-imidazol-1-yl)pyridin-2-yl)-4-methylpyridazin-3-yl)amino)ethanol]
0.0035 µM | COc1nc(-c2cc(C)c(N[C@@H](C)c3c(F)cc(F)cc3F)nn2)ccc1-n1cnc(C)c1 [Example 75, (S)-6-(6-methoxy-5-(4-methyl-1H-imidazol-1-yl)pyridin-2-yl)-4-methyl-N-(1-(2,4,6-trifluorophenyl)ethyl)pyridazin-3-amine]
0.029 µM | COc1nc(-c2cc(C)c(N[C@@H](C)C(C)(C)C)nn2)ccc1-n1cnc(C)c1 [Example 76, (S)—N-(3,3-dimethylbutan-2-yl)-6-(6-methoxy-5-(4-methyl-1H-imidazol-1-yl)pyridin-2-yl)-4-methyl pyridazin-3-amine]
0.027 µM | COc1nc(-c2cc(C)c(N[C@@H](C)c3ccc(C#N)cc3)nn2)ccc1-n1cnc(C)c1 [Example 77, (S)-4-(1-((6-(6-methoxy-5-(4-methyl-1H-imidazol-1-yl)pyridin-2-yl)-4-methylpyridazin-3-yl)amino)ethyl)benzonitrile]
0.061 µM | COc1nc(-c2cc(C)c(NC3CCCC3)nn2)ccc1-n1cnc(C)c1 [Example 78, N-cyclopentyl-6-(6-methoxy-5-(4-methyl-1H-imidazol-1-yl)pyridin-2-yl)-4-methylpyridazin-3-amine]
0.0075 µM | CCC[C@H](Nc1nnc(-c2ccc(-n3cnc(C)c3)c(OC)n2)cc1C)c1ccc(F)cc1 [Example 79, (S)—N-(1-(4-fluorophenyl)butyl)-6-(6-methoxy-5-(4-methyl-1H-imidazol-1-yl)pyridin-2-yl)-4-methylpyridazin-3-amine]
1.1 µM | COc1nc(-c2cc(C)c(N[C@H](CO)c3ccc(F)cc3)nn2)ccc1-n1cnc(C)c1 [Example 80, (S)-2-(4-fluorophenyl)-2-((6-(6-methoxy-5-(4-methyl-1H-imidazol-1-yl)pyridin-2-yl)-4-methylpyridazin-3-yl)amino)ethanol]
0.027 µM | COc1nc(-c2cc(C)c(NC3CCCCC3)nn2)ccc1-n1cnc(C)c1 [Example 81, N-cyclohexyl-6-(6-methoxy-5-(4-methyl-1H-imidazol-1-yl)pyridin-2-yl)-4-methylpyridazin-3-amine]
0.0035 µM | COc1nc(-c2cc(C)c(N[C@@H](C)c3ccc(F)cc3C(F)(F)F)nn2)ccc1-n1cnc(C)c1 [Example 82, (S)—N-(1-(4-fluoro-2-(trifluoromethyl)phenyl)ethyl)-6-(6-methoxy-5-(4-methyl-1H-imidazol-1-yl)pyridin-2-yl)-4-methylpyridazin-3-amine]
0.027 µM | COc1nc(-c2cc(C)c(N[C@@H]3C[C@H]3c3ccc(F)c(F)c3)nn2)ccc1-n1cnc(C)c1 [Example 83, N-((1R,2S)-2-(3,4-difluorophenyl)cyclopropyl)-6-(6-methoxy-5-(4-methyl-1H-imidazol-1-yl)pyridin-2-yl)-4-methylpyridazin-3-amine]
